This note sets out measurements from US20150051295A1, “USE OF PROPANOL AND PROPENOL DERIVATIVES AS ANTIOXIDANTS” (MERCK PATENT GmbH, priority 2011, published 2015).

The assay is described as follows: Determination of the reducing (=antioxidative) property: TLC plate chromatographed, then sprayed with potassium permanganate solution. The following applies: substance in MTB ether on TLC silica gel 60F254 plate, heptane/ethyl acetate 2/1, then sprayed with freshly prepared KMnO4/NaOH solution. How it is done: Determination of the reducing (=antioxidative) property of 3-(4-tert-butyl phenyl)-1-(4-methoxyphenyl)prop-2-en-1-ol (substance 1a) and of 3-(4-tert-butylphenyl)-1-(4-methoxyphenyl)propan-1-ol (substance 2a): a little substance is dissolved in MTB ether and applied to a TLC plate (TLC silica gel 60F254 plate). The plate is chromatographed with heptane/ethyl acetate 2/1. […] The Rf values are at 0.61 (substance 2a) and 0.35 (substance 1a).

As for `COc1ccc(C(O)CCc2ccc(C(C)(C)C)cc2)cc1` (centres unmarked) [substance 2a, 3-(4-tert-butylphenyl)-1-(4-methoxyphenyl)propan-1-ol], the “reducing (=antioxidative) property: decolourisation of potassium permanganate spray solution at substance spots” value is recorded as “decolorises at the substance spots”.
Then `COc1ccc(C(O)/C=C/c2ccc(C(C)(C)C)cc2)cc1` (centres unmarked) [substance 1a, 3-(4-tert-butylphenyl)-1-(4-methoxyphenyl)prop-2-en-1-ol], with “decolorises at the substance spots”.
